Molecules are shown by their SMILES. Bounds are passed on as bounds.

T1 sequence (Q86WV6 whole entry R71H/G230A/H232R/R293Q): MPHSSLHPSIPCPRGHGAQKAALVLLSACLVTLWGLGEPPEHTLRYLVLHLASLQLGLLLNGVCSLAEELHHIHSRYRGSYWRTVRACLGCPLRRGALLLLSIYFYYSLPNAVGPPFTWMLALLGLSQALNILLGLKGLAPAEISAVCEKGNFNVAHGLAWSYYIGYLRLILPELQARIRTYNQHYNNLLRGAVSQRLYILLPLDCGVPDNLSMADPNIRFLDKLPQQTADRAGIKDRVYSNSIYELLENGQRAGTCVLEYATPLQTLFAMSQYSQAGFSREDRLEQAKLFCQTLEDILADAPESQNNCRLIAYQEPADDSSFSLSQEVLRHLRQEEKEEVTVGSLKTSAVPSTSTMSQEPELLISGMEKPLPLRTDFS

One assay addresses T1, hSTING (Homo sapiens, UniProt Q86WV6, G230A/H232R/R293Q/R71H).
T1 construct: host or cells: THP1-Dual KO-IFNAR2 cells
As to the kind of experiment: STING reporter assay (luciferase) in THP1-Dual KO-IFNAR2 cells stimulated with 2′3′cGAMP. The assay is classed as cell-based. Conditions: 15 μM 2′3′cGAMP, 24 h, class symbols. How it is done: STING pathway activation by the compounds described herein was measured using THP1-Dual™ cells (KO-IFNAR2).
THP1-Dual™ KO-IFNAR2 Cells (obtained from invivogen) were maintained in RPMI, 10% FCS, 5 ml P/S, 2 mM L-glut, 10 mM Hepes, and 1 mM sodium pyruvate. Compounds were spotted in empty 384 well tissue culture plates (Greiner 781182) by Echo for a final concentration of 0.0017-100 μM. Cells were plated into the TC plates […], 2×10E6 cells/mL. For activation with STING ligand, 2′3′cGAMP (MW 718.38, obtained from Invivogen), was prepared in Optimem media.
The following solutions were prepared for each 1×384 plate: • Solution A: 2 mL Optimem with one of the following stimuli: • 60 μL of 10 mM 2′3′cGAMP->150 μM stock • Solution B: 2 mL Optimem with 60 μL Lipofectamine 2000->Incubate 5 min at RT
2 mL of solution A and 2 ml Solution B was mixed and incubated for 20 min at room temperature (RT). 20 uL of transfection solution (A+B) was added on top of the plated cells, with a final 2′3′cGAMP concentration of 15 μM. The plates were then centrifuged immediately at 340 g for 1 minute, after which they were incubated at 37° C., 5% CO2, >98% humidity for 24 h. Luciferase reporter activity was then measured. EC50 values were calculated by using standard methods known in the art.
Luciferase reporter assay: 10 μL of supernatant from the assay was transferred to white 384-plate with flat bottom and squared wells. One pouch of QUANTI-Luc™ Plus was dissolved in 25 mL of water. 100 μL of QLC Stabilizer per 25 mL of QUANTI-Luc™ Plus solution was added. 50 μL of QUANTI-Luc™ Plus/QLC solution per well was then added. Luminescence was measured on a Platereader (e.g., Spectramax I3X (Molecular Devices GF3637001)).
Luciferase reporter activity was then measured. EC50 values were calculated by using standard methods known in the art.
Take `Cc1c(CNC(=O)C(=O)Nc2c[nH]c3ccncc23)cccc1C(F)(F)F` [Compound 142, N1-(2-methyl-3-(trifluoromethyl)-benzyl)-N2-(1H-pyrrolo[3,2-c]pyridin-3-yl)oxalamide]: the EC50 is 0.2 to 1 µM. Still for that read-out and setting: with `CC(NC(=O)C(=O)Nc1c[nH]c2cccnc12)c1ccc(C(F)(F)F)cc1` (centres unmarked) [Compound 143, N1-(1H pyrrolo[3,2-b]pyridin-3-yl)-N2-(1-(4-(trifluoromethyl)phenyl)ethyl)oxalamide] the figure was 1 to 5 µM.

Turning to `COc1ccc(CNC(=O)C(=O)Nc2c[nH]c3cccnc23)cc1C(F)(F)F` [Compound 144, N1-(4-methoxy-3-(trifluoromethyl)benzyl)-N2-(1H-pyrrolo[3,2-b]pyridin-3-yl)oxalamide], the EC50 was in the range of 1 to 5 µM. On the same count and under the same terms, with `O=C(NCc1ccc(Cl)c(C(F)(F)F)c1)C(=O)Nc1c[nH]c2cccnc12` [Compound 145, N1-(4-chloro-3-(trifluoromethyl)benzyl)-N2-(1H-pyrrolo[3,2-b]pyridin-3-yl)oxalamide] the figure was 1 to 5 µM. In turn, `O=C(NCc1ccc(F)c(OC(F)(F)F)c1)C(=O)Nc1c[nH]c2ccncc12` [Compound 148, N1-(4-fluoro-3-(trifluoromethoxy)-benzyl)-N2-(1H-pyrrolo[3,2-c]pyridin-3-yl)oxalamide] had an EC50 of 0.2 to 1 µM.

`O=C(NCCc1ccc(C(F)(F)F)cc1)C(=O)Nc1c[nH]c2ccncc12` [Compound 153, N1-(1H-pyrrolo[3,2-c]pyridin-3-yl)-N2-(4-(trifluoromethyl)-phenethyl)-oxalamide] came in with an EC50 of 0.2 to 1 µM. On the same count and under the same terms, with `Cc1ccc(OCCNC(=O)C(=O)Nc2c[nH]c3ccncc23)cc1C` [Compound 157, N1-(2-(3,4-dimethylphenoxy)ethyl)-N2-(1H-pyrrolo[3,2-c]pyridin-3-yl)oxalamide] the figure was 5 to 100 µM. Same read-out and setting: with `O=C(NCc1cccc2c1OC(F)(F)O2)C(=O)Nc1c[nH]c2ccncc12` [Compound 158, N1-((2,2-difluorobenzo-[d][1,3]dioxol-4-yl)methyl)-N2-(1H-pyrrolo[3,2-c]pyridin-3-yl)oxalamide] the figure was 1 to 5 µM. The same measure, in the same setting: with `O=C(NCCOc1ccc(C(F)(F)F)cc1)C(=O)Nc1c[nH]c2ccncc12` [Compound 159, N1-(1H-pyrrolo[3,2-c]pyridin-3-yl)-N2-(2-(4-(trifluoromethyl)-phenoxy)ethyl)oxalamide] the figure was 1 to 5 µM; with `Cc1cc(F)c(Cl)cc1NC(=O)C(=O)Nc1c[nH]c2ccncc12` [Compound 162, N1-(5-chloro-4-fluoro-2-methylphenyl)-N2-(1H-pyrrolo[3,2-c]pyridin-3-yl)oxalamide], 1 to 5 µM; with `CC(CNC(=O)C(=O)Nc1c[nH]c2ccncc12)Oc1ccc(C(F)(F)F)cc1` (centres unmarked) [Compound 164, N1-(1H-pyrrolo[3,2-c]pyridin-3-yl)-N2-(2-(4-(trifluoromethyl)-phenoxy)propyl)-oxalamide], 1 to 5 µM. For `COc1ccc(CNC(=O)C(=O)Nc2c[nH]c3ccncc23)cc1C(F)(F)F` [Compound 165, N1-(4-methoxy-3-(trifluoromethyl)-benzyl)-N2-(1H-pyrrolo[3,2-c]pyridin-3-yl)oxalamide], the EC50 lay within 0.2 to 1 µM.

For `O=C(NCCc1ncc(C(F)(F)F)cc1Cl)C(=O)Nc1c[nH]c2ccncc12` [Compound 166, N1-(2-(3-chloro-5-(trifluoromethyl)-pyridin-2-yl)ethyl)-N2-(1H-pyrrolo[3,2-c]pyridin-3-yl)oxalamide], the EC50 was 5 to 100 µM. In the case of `O=C(NCc1ccc(Cl)cc1C(F)(F)F)C(=O)Nc1c[nH]c2ccncc12` [Compound 167, N1-(4-chloro-2-(trifluoromethyl)-benzyl)-N2-(1H-pyrrolo[3,2-c]pyridin-3-yl)oxalamide], the EC50 was in the range of 0.2 to 1 µM. Take `O=C(NCc1cccc(C(F)(F)F)c1F)C(=O)Nc1c[nH]c2ccncc12` [Compound 170, N1-(2-fluoro-3-(trifluoromethyl)-benzyl)-N2-(1H-pyrrolo[3,2-c]pyridin-3-yl)oxalamide]: the EC50 fell in the range of 1 to 5 µM.

The compound `O=C(NCc1ccc(Cl)c(C(F)(F)F)c1)C(=O)Nc1c[nH]c2ccncc12` [Compound 171, N1-(4-chloro-3-(trifluoromethyl)-benzyl)-N2-(1H-pyrrolo[3,2-c]pyridin-3-yl)oxalamide] returned an EC50 of 0.2 to 1 µM. Take `O=C(NCc1ccccc1C(F)(F)F)C(=O)Nc1c[nH]c2ccncc12` [Compound 172, N1-(1H-pyrrolo[3,2-c]pyridin-3-yl)-N2-(2-(trifluoromethyl)-benzyl)-oxalamide]: the EC50 lay within 5 to 100 µM.

Compound `O=C(NCc1cccc(OC(F)(F)F)c1)C(=O)Nc1c[nH]c2ccncc12` [Compound 173, N1-(1H-pyrrolo[3,2-c]pyridin-3-yl)-N2-(3-(trifluoromethoxy)-benzyl)oxalamide] yielded an EC50 of 1 to 5 µM. `Cc1ccc(CNC(=O)C(=O)Nc2c[nH]c3cc(F)cnc23)cc1C(F)(F)F` [Compound 174] displayed an EC50 of 0.2 to 1 µM.

`Cc1c(NC(=O)C(=O)Nc2c[nH]c3ccncc23)cccc1C(F)(F)F` [Compound 175, N1-(2-methyl-3-(trifluoromethyl)-phenyl)-N2-(1H-pyrrolo[3,2-c]pyridin-3-yl)oxalamide] yielded an EC50 of 1 to 5 µM. Same read-out and setting: next, `Cc1ccc2[nH]cc(NC(=O)C(=O)Nc3cnc(N4CCC(F)(F)CC4)c(Cl)c3)c2n1` [Compound 195, N-(5-chloro-6-(4,4-difluoropiperidin-1-yl)pyridin-3-yl)-N′-(5-methyl-1H-pyrrolo[3,2-b]pyridin-3-yl)oxalamide]: 1 to 5 µM. Compound `O=C(Nc1c[nH]c2ncc(F)cc12)C(=O)NC1CCC2(CCCC2)CC1` [Compound 198, N-(5-fluoro-1H-pyrrolo[2,3-b]pyridin-3-yl)-N′-(spiro[4.5]decan-8-yl)oxalamide] registered an EC50 of 0.2 to 1 µM. Compound `O=C(Nc1c[nH]c2ncc(F)cc12)C(=O)NC1CCC2(CCCC2)C1` (centres unmarked) [Compound 203] had an EC50 of 5 to 100 µM.

Compound `O=C(Nc1c[nH]c2ncc(F)cc12)C(=O)NC1CCC2(CCCCC2)C1` (centres unmarked) [Compound 204, N-(5-fluoro-1H-pyrrolo[2,3-b]pyridin-3-yl)-N′-(spiro[4.5]decan-2-yl)oxalamide] returned an EC50 of 5 to 100 µM.

The assay is the same for the next values; noted with them: 15 μM 2′3′cGAMP, 24 h, numeric bounds.
In the case of `O=C(NCc1cccc(N2CCCCC2)c1)C(=O)Nc1c[nH]c2cccnc12` [Compound 141, N1-(3-(piperidin-1-yl)benzyl)-N2-(1H-pyrrolo[3,2-b]pyridin-3-yl)oxalamide], the EC50 was more than 30 µM. Consider `O=C(NCC1CCCC(F)(F)C1)C(=O)Nc1c[nH]c2ccncc12` (centres unmarked) [Compound 146, N1-((3,3-difluorocyclohexyl)-methyl)-N2-(1H-pyrrolo[3,2-c]pyridin-3-yl)oxalamide], for which the EC50 was more than 30 µM. The compound `O=C(NCCc1cccc(C(F)(F)F)c1)C(=O)Nc1c[nH]c2cccnc12` [Compound 149, N1-(1H-pyrrolo[3,2-b]pyridin-3-yl)-N2-(3-(trifluoromethyl)phenethyl)oxalamide] yielded an EC50 of more than 30 µM. In the case of `O=C(Nc1ccc(OCC(F)(F)F)nc1)C(=O)Nc1c[nH]c2cccnc12` [Compound 150, N1-(1H-pyrrolo[3,2-b]pyridin-3-yl)-N2-(6-(2,2,2-trifluoroethoxy)pyridin-3-yl)oxalamide], the EC50 is more than 30 µM. The same measure, in the same setting: next, `O=C(NCc1cccc(OC(F)(F)F)c1)C(=O)Nc1c[nH]c2cccnc12` [Compound 151, N1-(1H pyrrolo[3,2-b]pyridin-3-yl)-N2-(3-(trifluoro-methoxy)benzyl)oxalamide]: more than 30 µM; `O=C(NCC1CCc2ccccc2O1)C(=O)Nc1c[nH]c2ccncc12` (centres unmarked) [Compound 154, N1-(chroman-2-ylmethyl)-N2-(1H-pyrrolo[3,2-c]pyridin-3-yl)oxalamide]: more than 30 µM. `O=C(NCC1(c2ccccc2)CC1)C(=O)Nc1c[nH]c2ccncc12` [Compound 156, N1-((1-phenylcyclopropyl)-methyl)-N2-(1H-pyrrolo[3,2-c]pyridin-3-yl)oxalamide]: the EC50 is more than 30 µM. `O=C(NCC1CCC(F)(F)CC1)C(=O)Nc1c[nH]c2ccncc12` [Compound 160, N1-((4,4-difluorocyclohexyl)-methyl)-N2-(1H-pyrrolo[3,2-c]pyridin-3-yl)oxalamide] returned an EC50 of more than 30 µM. On the same count and under the same terms, next, `O=C(NCCC1(C(F)(F)F)CC1)C(=O)Nc1c[nH]c2ccncc12` [Compound 161, N1-(1H-pyrrolo[3,2-c]pyridin-3-yl)-N2-(2-(1-(trifluoromethyl)-cyclopropyl)-ethyl)oxalamide]: more than 30 µM; `O=C(NCC(F)(F)c1ccccc1)C(=O)Nc1c[nH]c2ccncc12` [Compound 163, N1-(2,2-difluoro-2-phenylethyl)-N2-(1H-pyrrolo[3,2-c]pyridin-3-yl)oxalamide]: more than 30 µM. The compound `COc1ccc(CNC(=O)C(=O)Nc2c[nH]c3ccncc23)cc1Cl` [Compound 168, N1-(3-chloro-4-methoxybenzyl)-N2-(1H-pyrrolo[3,2-c]pyridin-3-yl)oxalamide] displayed an EC50 of more than 30 µM.

Source of the values: patent US20230002373A1, “COMPOUNDS AND COMPOSITIONS FOR TREATING CONDITIONS ASSOCIATED WITH STING ACTIVITY” (IFM Due, Inc., priority 2019, published 2023).
